In one experiment the target is BChE (Homo sapiens, UniProt P06276). Briefly: BChE inhibition, modified Ellman's spectrophotometric assay. The experiment is classed as biochemical. Conditions: mean ± SD; for inhibition at 50 µM: 50 µM compound, NA = not active. The method, then: (§1) A previously described modified protocol of Ellman's spectrophotometric assay in clear flat-bottomed, 96-well plates, was used. […] The absorbance of each well was measured at 415 nm using a microplate reader. […]

The target in a further experiment is AChE (Homo sapiens, UniProt P22303). Briefly: biochemical. Conditions: mean ± SD; for inhibition at 50 µM: 50 µM compound, NA = not active. The method, then:
as §1

Chain of BChE (P06276 29-602): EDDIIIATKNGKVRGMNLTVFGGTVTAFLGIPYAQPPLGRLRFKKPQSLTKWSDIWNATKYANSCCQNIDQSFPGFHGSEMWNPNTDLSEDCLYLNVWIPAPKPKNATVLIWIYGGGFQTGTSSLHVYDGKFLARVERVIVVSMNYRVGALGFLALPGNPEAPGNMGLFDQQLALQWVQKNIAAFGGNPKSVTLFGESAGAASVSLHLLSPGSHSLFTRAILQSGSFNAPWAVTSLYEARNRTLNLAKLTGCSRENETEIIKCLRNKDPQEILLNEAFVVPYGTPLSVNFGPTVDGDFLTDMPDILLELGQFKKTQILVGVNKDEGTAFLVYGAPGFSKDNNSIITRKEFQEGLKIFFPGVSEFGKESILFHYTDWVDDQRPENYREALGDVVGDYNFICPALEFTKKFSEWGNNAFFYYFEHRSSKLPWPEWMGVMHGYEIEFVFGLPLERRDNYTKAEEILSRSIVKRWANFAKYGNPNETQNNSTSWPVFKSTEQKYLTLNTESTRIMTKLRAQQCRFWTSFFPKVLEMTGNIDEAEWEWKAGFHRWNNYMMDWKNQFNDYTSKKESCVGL
Chain of AChE (P22303 32-614): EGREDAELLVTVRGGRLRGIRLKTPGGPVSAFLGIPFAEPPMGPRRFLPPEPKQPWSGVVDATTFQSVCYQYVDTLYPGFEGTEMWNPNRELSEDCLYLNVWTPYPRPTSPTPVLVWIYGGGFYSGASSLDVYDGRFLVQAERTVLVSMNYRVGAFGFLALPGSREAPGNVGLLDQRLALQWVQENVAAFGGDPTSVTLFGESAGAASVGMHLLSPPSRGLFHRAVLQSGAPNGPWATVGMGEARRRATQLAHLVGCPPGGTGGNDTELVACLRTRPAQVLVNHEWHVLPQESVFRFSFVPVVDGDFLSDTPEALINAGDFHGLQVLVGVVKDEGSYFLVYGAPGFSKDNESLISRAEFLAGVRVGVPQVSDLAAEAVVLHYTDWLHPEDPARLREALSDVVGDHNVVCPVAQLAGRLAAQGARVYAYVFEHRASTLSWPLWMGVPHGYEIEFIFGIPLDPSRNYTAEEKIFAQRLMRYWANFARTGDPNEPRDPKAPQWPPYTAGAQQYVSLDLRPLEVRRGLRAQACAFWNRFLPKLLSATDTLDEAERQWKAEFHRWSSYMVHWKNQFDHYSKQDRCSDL

The term inhibition denotes how much of the control response was suppressed. A lower inhibition goes with a response near the control. For `Cc1ccc(-c2c(C(C#N)C(N)=O)c([N+](=O)[O-])c3n2CCCN3)cc1` (stereo not shown) [Compound 4a, 2-cyano-2-(8-nitro-6-(p-tolyl)-1,2,3,4-tetrahydropyrrolo[1,2-a]pyrimidin-7-yl)acetamide], the inhibition at 50 µM against BChE stood at 26.1 ± 4.09%; against AChE it was 14.7 ± 2.26%.
In general, IC50 refers to the midpoint of a concentration-inhibition curve. A higher IC50 goes with weaker potency. Consider `COc1ccc(-n2c(SC)c([N+](=O)[O-])c(C(C#N)C(N)=O)c2-c2ccc(Cl)cc2)cc1` (stereo not shown) [Compound 4aa, 2-(2-(4-chlorophenyl)-1-(4-methoxyphenyl)-5-(methylthio)-4-nitro-1H-pyrrol-3-yl)-2-cyanoacetamide], for which the inhibition at 50 µM against BChE was found to be 22.3 ± 3.91%. Further, at AChE, the inhibition at 50 µM stood at 48.6 ± 2.77% and 54.6 ± 5.71 µM corresponded to half-maximal inhibition (IC50).
Consider `CCOC(=O)C(C(N)=O)c1c([N+](=O)[O-])c(SC)n(-c2ccc(OC)cc2)c1-c1ccc(Cl)cc1` (stereo not shown) [Compound 4ac, Ethyl 3-amino-2-(2-(4-chlorophenyl)-1-(4-methoxyphenyl)-5-(methylthio)-4-nitro-1H-pyrrol-3-yl)-3-oxopropanoate], for which the inhibition at 50 µM was determined as 33.8 ± 4.84% on BChE and 11.8 ± 3.92% at AChE.
`CSc1c([N+](=O)[O-])c(C(C#N)C(N)=O)c(-c2ccc(C)cc2)n1-c1ccc(O)cc1` (stereo not shown) [Compound 4ae, 2-cyano-2-(1-(4-hydroxyphenyl)-5-(methylthio)-4-nitro-2-(p-tolyl)-1H-pyrrol-3-yl)acetamide] showed an inhibition at 50 µM on BChE of 17.1 ± 3.49%. On AChE, this compound returned an inhibition at 50 µM of 52.4 ± 5.07% and an IC50 of 33.1 ± 3.11 µM.
`COC(=O)C(C(N)=O)c1c([N+](=O)[O-])c(SC)n(-c2ccc(C)cc2)c1-c1ccccc1` (stereo not shown) [Compound 4af, Methyl 3-amino-2-(5-(methylthio)-4-nitro-2-phenyl-1-(p-tolyl)-1H-pyrrol-3-yl)-3-oxopropanoate] showed an inhibition at 50 µM against AChE of 24 ± 4.6%.
Same read-out and setting: the value for `CSc1c([N+](=O)[O-])c(C(C#N)C(N)=O)c(-c2ccc(C)cc2)n1-c1ccc(C)cc1` (stereo not shown) [Compound 4ag, 2-cyano-2-(5-(methylthio)-4-nitro-1,2-di-p-tolyl-1H-pyrrol-3-yl)acetamide] was 33.3 ± 2.31%.
As for `CSc1c([N+](=O)[O-])c(C(C#N)C(N)=O)c(-c2ccc(Cl)cc2)n1-c1ccc(C)cc1` (stereo not shown) [Compound 4ah, 2-(2-(4-chlorophenyl)-5-(methylthio)-4-nitro-1-(p-tolyl)-1H-pyrrol-3-yl)-2-cyanoacetamide], at AChE, the inhibition at 50 µM was 72.5 ± 3.05% and it took 4.78 ± 1.63 µM to reach half-maximal inhibition (IC50).
`CCOC(=O)C(C(N)=O)c1c([N+](=O)[O-])c(SC)n(-c2ccc(C)cc2)c1-c1ccccc1` (stereo not shown) [Compound 4ai, Ethyl3-amino-2-(5-(methylthio)-4-nitro-2-phenyl-1-(p-tolyl)-1H-pyrrol-3-yl)-3-oxopropanoate] gave an inhibition at 50 µM against AChE of 24.2 ± 2.23%.
Compound `COC(=O)C(C(N)=O)c1c([N+](=O)[O-])c(SC)n(-c2ccc(C)c(C)c2)c1-c1ccccc1` (stereo not shown) [Compound 4aj, Methyl3-amino-2-(1-(3,4-dimethylphenyl)-5-(methylthio)-4-nitro-2-phenyl-1H-pyrrol-3-yl)-3-oxopropanoate] registered an inhibition at 50 µM against AChE of 38.9 ± 5.99%.
Turning to `CC1(C)CNc2c([N+](=O)[O-])c(C(C#N)C(N)=O)c(-c3ccccc3)n2C1` (stereo not shown) [Compound 4b, 2-cyano-2-(3,3-dimethyl-8-nitro-6-phenyl-1,2,3,4-tetrahydropyrrolo[1,2-a]pyrimidin-7-yl)acetamide], at AChE, at 50 µM the inhibition was 52 ± 4.43% and the 50% inhibitory concentration (IC50) was 37.1 ± 3.52 µM.
Regarding `N#CC(C(N)=O)c1c([N+](=O)[O-])c2n(c1-c1ccccc1)CCCN2` (stereo not shown) [Compound 4c, 2-cyano-2-(8-nitro-6-phenyl-1,2,3,4-tetrahydropyrrolo[1,2-a]pyrimidin-7-yl)acetamide], the inhibition at 50 µM on AChE worked out at 39.8 ± 3.69%.
Take `CCOC(=O)C(C(N)=O)c1c([N+](=O)[O-])c2n(c1-c1ccccc1)CC(C)(C)CN2` (stereo not shown) [Compound 4d, Ethyl3-amino-2-(3,3-dimethyl-8-nitro-6-phenyl-1,2,3,4-tetrahydropyrrolo[1,2-a]pyrimidin-7-yl)-3-oxopropanoate]: the inhibition at 50 µM at BChE came out at 13.5 ± 2.96%; on AChE it was 13.5 ± 1.58%.
On to `CC1(C)CNc2c([N+](=O)[O-])c(C(C#N)C(N)=O)c(-c3ccc(Cl)cc3)n2C1` (stereo not shown) [Compound 4e, 2-(6-(4-chlorophenyl)-3,3-dimethyl-8-nitro-1,2,3,4-tetrahydropyrrolo[1,2-a]pyrimidin-7-yl)-2-cyanoacetamide], for which, at BChE, the inhibition at 50 µM stood at 18.1 ± 2.89%. On AChE, this compound gave an inhibition at 50 µM of 57 ± 5.46% and an IC50 of 36.3 ± 4.85 µM.
Take `COc1cccc(-c2c(C(C#N)C(N)=O)c([N+](=O)[O-])c3n2CCCN3)c1` (stereo not shown) [Compound 4f, 2-cyano-2-(6-(3-methoxyphenyl)-8-nitro-1,2,3,4-tetrahydropyrrolo[1,2-a]pyrimidin-7-yl)acetamide]: the results for the inhibition at 50 µM against BChE and against AChE were 17.8 ± 2.79% and 33.5 ± 5.19%, respectively.
On AChE, `CCOC(=O)C(C(N)=O)c1c([N+](=O)[O-])c2n(c1-c1ccccc1)CCCN2` (stereo not shown) [Compound 4g, Ethyl 3-amino-2-(8-nitro-6-phenyl-1,2,3,4-tetrahydropyrrolo[1,2-a]pyrimidin-7-yl)-3-oxopropanoate] had an inhibition at 50 µM of 30.8 ± 5.17%.
At AChE, `Cc1ccc(-c2c(C(C#N)C(N)=O)c([N+](=O)[O-])c3n2CC(C)(C)CN3)cc1` (stereo not shown) [Compound 4h, 2-cyano-2-(3,3-dimethyl-8-nitro-6-(p-tolyl)-1,2,3,4-tetrahydropyrrolo[1,2-a]pyrimidin-7-yl)acetamide] yielded an inhibition at 50 µM of 45.8 ± 2.81% and an IC50 of 67.6 ± 7.54 µM.
For `N#CC(C(N)=O)c1c([N+](=O)[O-])c2n(c1-c1ccc(Cl)cc1)CCCN2` (stereo not shown) [Compound 4i, 2-(6-(4-chlorophenyl)-8-nitro-1,2,3,4-tetrahydropyrrolo[1,2-a]pyrimidin-7-yl)-2-cyanoacetamide], at 50 µM the inhibition at AChE was 33.9 ± 6.87%.
As for `COC(=O)C(C(N)=O)c1c([N+](=O)[O-])c2n(c1-c1ccc(C)cc1)CC(C)(C)CN2` (stereo not shown) [Compound 4j, Methyl3-amino-2-(3,3-dimethyl-8-nitro-6-(p-tolyl)-1,2,3,4-tetrahydropyrrolo[1,2-a]pyrimidin-7-yl)-3-oxopropanoate], the results for the inhibition at 50 µM against BChE and against AChE were 28.2 ± 3.83% and 14.9 ± 2.45%, respectively.
On the same counts, the results for `COC(=O)C(C(N)=O)c1c([N+](=O)[O-])c2n(c1-c1ccc(Cl)cc1)CC(C)(C)CN2` (stereo not shown) [Compound 4k, Methyl3-amino-2-(6-(4-chlorophenyl)-3,3-dimethyl-8-nitro-1,2,3,4-tetrahydropyrrolo[1,2-a]pyrimidin-7-yl)-3-oxopropanoate] are 13.7 ± 2.13% and 13.3 ± 4.88%.
In the case of `CCOC(=O)C(C(N)=O)c1c([N+](=O)[O-])c2n(c1-c1ccc(C)cc1)CC(C)(C)CN2` (stereo not shown) [Compound 4l, Ethyl3-amino-2-(3,3-dimethyl-8-nitro-6-(p-tolyl)-1,2,3,4-tetrahydropyrrolo[1,2-a]pyrimidin-7-yl)-3-oxopropanoate], 50 µM produced 14.2 ± 2.12% inhibition against AChE.
`CCOC(=O)C(C(N)=O)c1c([N+](=O)[O-])c(NCc2ccco2)n(Cc2ccco2)c1-c1ccc(Cl)cc1` (stereo not shown) [Compound 4n, Ethyl3-amino-2-(2-(4-chlorophenyl)-1-(furan-2-ylmethyl)-5-((furan-2-ylmethyl)amino)-4-nitro-1H-pyrrol-3-yl)-3-oxopropanoate] registered an inhibition at 50 µM at BChE of 21.9 ± 1.18%.
In the case of `Cc1ccc(-c2c(C(C#N)C(N)=O)c([N+](=O)[O-])c(NCc3ccco3)n2Cc2ccco2)cc1` (stereo not shown) [Compound 4o, 2-cyano-2-(1-(furan-2-ylmethyl)-5-((furan-2-ylmethyl)amino)-4-nitro-2-(p-tolyl)-1H-pyrrol-3-yl)acetamide], the inhibition at 50 µM against BChE came out at 46.1 ± 6.43%; against AChE it was 19.8 ± 4.18%. The compound further displayed a half-inhibitory concentration (IC50) against BChE of 69.2 ± 5.09 µM.
Take `N#CC(C(N)=O)c1c([N+](=O)[O-])c(NCc2ccccc2)n(Cc2ccccc2)c1-c1ccc(Cl)cc1` (stereo not shown) [Compound 4p, 2-(1-benzyl-5-(benzylamino)-2-(4-chlorophenyl)-4-nitro-1H-pyrrol-3-yl)-2-cyanoacetamide]: the inhibition at 50 µM on AChE was found to be 18.7 ± 3.52%.
Take `CCOC(=O)C(C(N)=O)c1c([N+](=O)[O-])c(NCc2ccco2)n(Cc2ccco2)c1-c1ccc(C)cc1` (stereo not shown) [Compound 4q, Ethyl3-amino-2-(1-(furan-2-ylmethyl)-5-((furan-2-ylmethyl)amino)-4-nitro-2-(p-tolyl)-1H-pyrrol-3-yl)-3-oxopropanoate]: the results for the inhibition at 50 µM against BChE and against AChE were 68.4 ± 6.35% and 17.8 ± 2.44%, respectively. The IC50 on BChE amounted to 18.6 ± 2.71 µM.
Compound `N#CC(C(N)=O)c1c([N+](=O)[O-])c(NCc2ccco2)n(Cc2ccco2)c1-c1ccc(Cl)cc1` (stereo not shown) [Compound 4s, 2-(2-(4-chlorophenyl)-1-(furan-2-ylmethyl)-5-((furan-2-ylmethyl)amino)-4-nitro-1H-pyrrol-3-yl)-2-cyanoacetamide] gave an inhibition at 50 µM on BChE of 29.5 ± 3.87%.
Still for that read-out and setting: the figure for `CCOC(=O)C(C(N)=O)c1c([N+](=O)[O-])c(NCc2ccccc2)n(Cc2ccccc2)c1-c1ccc(C)cc1` (stereo not shown) [Compound 4t, Ethyl 3-amino-2-(1-benzyl-5-(benzylamino)-4-nitro-2-(p-tolyl)-1H-pyrrol-3-yl)-3-oxopropanoate] is 26.5 ± 5.12%.
In the case of `N#CC(C(N)=O)c1c(-c2ccc(Cl)cc2)[nH]c(N)c1[N+](=O)[O-]` (stereo not shown) [Compound 4w, 2-(5-amino-2-(4-chlorophenyl)-4-nitro-1H-pyrrol-3-yl)-2-cyanoacetamide], the inhibition at 50 µM against BChE was 33.5 ± 3.4%; on AChE it was 48.6 ± 4.53%.
`N#CC(C(N)=O)c1c(-c2ccc3ccccc3c2)[nH]c(N)c1[N+](=O)[O-]` (stereo not shown) [Compound 4y, 2-(5-amino-2-(naphthalen-2-yl)-4-nitro-1H-pyrrol-3-yl)-2-cyanoacetamide] returned an inhibition at 50 µM against BChE of 19.1 ± 4.3%.
Turning to `CSc1c([N+](=O)[O-])c(C(C#N)C(N)=O)c(-c2ccc(C)cc2)n1-c1ccc(C)c(C)c1` (stereo not shown) [Compound 4z, 2-cyano-2-(1-(3,4-dimethylphenyl)-5-(methylthio)-4-nitro-2-(p-tolyl)-1H-pyrrol-3-yl)acetamide], the inhibition at 50 µM against AChE came out at 26.7 ± 5.14%.

Values taken from PMC9454393 (Scientific Reports, 2022).
